# In the supplement of paper PMC11208160:
# Assay: recombinant barcode read abundance after kanamycin selection (control-corrected) (log10(CPM+1)); higher = more efficient recombination; sequences stand for … in AGTGCAGAGAAAATCGGCCAGTTTTCTCTGCCTGCAGTCCGCATGCCGT…AGATTTATGCAGCGGACTGCCTTTCTCCCAAAGTGATAAACCGGACAGTATCATGGACCGGTTTTCCCGGTAATCCGTATTTGCAAGGTTGGTTTCACT; site = the 11-nt target
# Summary of the method: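 Recombination efficiency was calculated from barcode counts at recombinant junctions, normalized to counts per million, averaged and corrected by the control. Each value is given as log10(CPM+1). The constructs were Gibson-cloned oligos (promoter, target, barcode, J23119-driven first 104 bridge RNA bases) in a vector with the remaining 73 bp and a T7-inducible recombinase, co-electroporated into E. coli with a donor plasmid and plated in duplicate on chloramphenicol/ampicillin LB agar (control) or chloramphenicol/ampicillin/kanamycin with 0.1 mM IPTG.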
# 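Further: IS621 recombinase and bridge RNA in Escherichia coli cells.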
row,Sequence,recombinant barcode read abundance (log10)
1,CTACGTACTTGGGTTCTAACCTGTTGCTG (site CTACGGACTCA),0.0671
2,CTACGTACTTGGGTTCTAACCTGTTGCTG (site CTACGTACTCA),1.75
3,CTACTAACTTGGGTTCTAACCTGTTGCCT (site CTACTAACTAA),0.0105
4,CTACTAACTTGGGTTCTAACCTGTTGCCT (site CTACTAACTAC),0.0952
5,CTACTAACTTGGGTTCTAACCTGTTGCCT (site CTACTAACTAG),1.3
6,CTACTAACTTGGGTTCTAACCTGTTGCCT (site CTACTAACTAT),0.182
7,CTACTAGCTTGGGTTCTAACCTGTTGCAC (site CTACTAGCTAT),0.0299
8,CTACTAGCTTGGGTTCTAACCTGTTGCAC (site CTACTAGCTCT),0.433
9,CTACTAGCTTGGGTTCTAACCTGTTGCAC (site CTACTAGCTGT),1.66
10,CTACTAGCTTGGGTTCTAACCTGTTGCAC (site CTACTAGCTTT),0.727
11,CTACTTACTTGGGTTCTAACCTGTTGCCT (site CTAATTACTAG),0.0298
12,CTACTTACTTGGGTTCTAACCTGTTGCCT (site CTACTTACTAG),0.741
13,CTACTTACTTGGGTTCTAACCTGTTGCCT (site CTAGTTACTAG),0
14,CTACTTACTTGGGTTCTAACCTGTTGCCT (site CTATTTACTAG),0.1
15,CTAGAAGCTTGGGTTCTAACCTGTTGCGG (site CTAGAAGCTCC),1.31
16,CTAGAAGCTTGGGTTCTAACCTGTTGCGG (site CTGGAACCTCC),0.401
17,CTAGACTCTTGGGTTCTAACCTGTTGCTA (site CTAGACTCTAA),0.587
18,CTAGACTCTTGGGTTCTAACCTGTTGCTA (site CTAGACTCTCA),0.234
19,CTAGACTCTTGGGTTCTAACCTGTTGCTA (site CTAGACTCTGA),0.117
20,CTAGACTCTTGGGTTCTAACCTGTTGCTA (site CTAGACTCTTA),2.7
21,CTAGAGTCTTGGGTTCTAACCTGTTGCTT (site CTAGAGTCTAA),2.66
22,CTAGAGTCTTGGGTTCTAACCTGTTGCTT (site CTAGCGTCTAA),0.0496

row,Sequence,recombinant barcode read abundance (log10)
1,CTAGATTCTTGGGTTCTAACCTGTTGCCT (site CAAGATTCTAG),0.167
2,CTAGATTCTTGGGTTCTAACCTGTTGCCT (site CCAGATTCTAG),0.116
3,CTAGATTCTTGGGTTCTAACCTGTTGCCT (site CGAGATTCTAG),0.077
4,CTAGATTCTTGGGTTCTAACCTGTTGCCT (site CTAGATTCTAG),1.49
5,CTAGCCGCTTGGGTTCTAACCTGTTGCTT (site AGCCTATCTTG),0.119
6,CTAGCCGCTTGGGTTCTAACCTGTTGCTT (site CTAGCCGCTAA),1.03
7,CTAGCGGCTTGGGTTCTAACCTGTTGCAG (site CTAGCGGCTCT),2.05
8,CTAGCGGCTTGGGTTCTAACCTGTTGCAG (site CTAGCTCCTCT),0.0734
9,CTAGGCCCTTGGGTTCTAACCTGTTGCCT (site CTAGGCCCTAA),0.584
10,CTAGGCCCTTGGGTTCTAACCTGTTGCCT (site CTAGGCCCTAC),2.1
11,CTAGGCCCTTGGGTTCTAACCTGTTGCCT (site CTAGGCCCTAG),0.184
12,CTAGGCCCTTGGGTTCTAACCTGTTGCCT (site CTAGGCCCTAT),0.506
13,CTAGGCCCTTGGGTTCTAACCTGTTGCTT (site CTAGGCCCTAA),0.563
14,CTAGGCCCTTGGGTTCTAACCTGTTGCTT (site CTAGGCCCTAC),0.18
15,CTAGGCCCTTGGGTTCTAACCTGTTGCTT (site CTAGGCCCTAG),0.229
16,CTAGGCCCTTGGGTTCTAACCTGTTGCTT (site CTAGGCCCTAT),0.939
17,CTAGTACCTTGGGTTCTAACCTGTTGCCT (site CTAGTACCTAG),1.43
18,CTAGTACCTTGGGTTCTAACCTGTTGCCT (site TTAGTAACTAG),0.0602
19,CTAGTAGCTTGGGTTCTAACCTGTTGCGG (site CTAGTAGCTAC),0.553
20,CTAGTAGCTTGGGTTCTAACCTGTTGCGG (site CTAGTAGCTCC),1.56
21,CTAGTCCCTTGGGTTCTAACCTGTTGCCG (site CTAGTCCCTCG),1.79
22,CTAGTCCCTTGGGTTCTAACCTGTTGCCG (site TTAGTCCCTCG),0.176

row,Sequence,recombinant barcode read abundance (log10)
1,CTAGTGGCTTGGGTTCTAACCTGTTGCCG (site CTAGTGGCTCG),1.3
2,CTAGTGGCTTGGGTTCTAACCTGTTGCCG (site TCGTCACCTAT),0.0446
3,CTATAGACTTGGGTTCTAACCTGTTGCCT (site CTATAGACTAG),1.11
4,CTATAGACTTGGGTTCTAACCTGTTGCCT (site CTATCGACTAG),0.163
5,CTATAGACTTGGGTTCTAACCTGTTGCCT (site CTATGGACTAG),0.475
6,CTATAGACTTGGGTTCTAACCTGTTGCCT (site CTATTGACTAG),0.317
7,CTATCCACTTGGGTTCTAACCTGTTGCCT (site CTATCCACTAG),1.63
8,CTATCCACTTGGGTTCTAACCTGTTGCCT (site CTGTCGACTAG),0.873
9,CTATGACCTTGGGTTCTAACCTGTTGCCT (site CTATGACCTAA),0.124
10,CTATGACCTTGGGTTCTAACCTGTTGCCT (site CTATGACCTAC),0.23
11,CTATGACCTTGGGTTCTAACCTGTTGCCT (site CTATGACCTAG),1.9
12,CTATGACCTTGGGTTCTAACCTGTTGCCT (site CTATGACCTAT),0.104
13,CTATGTGCTTGGGTTCTAACCTGTTGCTT (site CTATGTGCTAA),0.337
14,CTATGTGCTTGGGTTCTAACCTGTTGCTT (site CTATGTGCTAC),0.37
15,CTATGTGCTTGGGTTCTAACCTGTTGCTT (site CTATGTGCTAG),1.1
16,CTATGTGCTTGGGTTCTAACCTGTTGCTT (site CTATGTGCTAT),0.746
17,CTATTAACTTGGGTTCTAACCTGTTGCTA (site ACTCACCCTCC),0.00656
18,CTATTAACTTGGGTTCTAACCTGTTGCTA (site CTATTAACTTA),0.328
19,CTATTCCCTTGGGTTCTAACCTGTTGCTG (site CTATTCCCTCA),1.99
20,CTATTCCCTTGGGTTCTAACCTGTTGCTG (site CTCTTCCCTAA),0.185
21,CTATTCGCTTGGGTTCTAACCTGTTGCCT (site CTATTCACTAG),0.295
22,CTATTCGCTTGGGTTCTAACCTGTTGCCT (site CTATTCCCTAG),0.0147

row,Sequence,recombinant barcode read abundance (log10)
1,CTATTCGCTTGGGTTCTAACCTGTTGCCT (site CTATTCGCTAG),1.49
2,CTATTCGCTTGGGTTCTAACCTGTTGCCT (site CTATTCTCTAG),0.218
3,CTATTGACTTGGGTTCTAACCTGTTGCCT (site CTATAGACTAG),0.0514
4,CTATTGACTTGGGTTCTAACCTGTTGCCT (site CTATCGACTAG),0.246
5,CTATTGACTTGGGTTCTAACCTGTTGCCT (site CTATGGACTAG),0.11
6,CTATTGACTTGGGTTCTAACCTGTTGCCT (site CTATTGACTAG),1.42
7,CTATTGTCTTGGGTTCTAACCTGTTGCGC (site CTATTGTCTAC),0.06
8,CTATTGTCTTGGGTTCTAACCTGTTGCGC (site CTATTGTCTCC),0.0404
9,CTATTGTCTTGGGTTCTAACCTGTTGCGC (site CTATTGTCTGC),2.77
10,CTATTGTCTTGGGTTCTAACCTGTTGCGC (site CTATTGTCTTC),0.909
11,CTATTTACTTGGGTTCTAACCTGTTGCCT (site CTAATTACTAG),0.0674
12,CTATTTACTTGGGTTCTAACCTGTTGCCT (site CTACTTACTAG),0.302
13,CTATTTACTTGGGTTCTAACCTGTTGCCT (site CTAGTTACTAG),0.19
14,CTATTTACTTGGGTTCTAACCTGTTGCCT (site CTATTTACTAG),0.411
15,CTCAATTCTTGGGTTCTAACCTGTTGCAA (site CTCAATACTTC),0.0332
16,CTCAATTCTTGGGTTCTAACCTGTTGCAA (site CTCAATTCTTT),0.0558
17,CTCAATTCTTGGGTTCTAACCTGTTGCAT (site CTCAATTCTAT),0.812
18,CTCAATTCTTGGGTTCTAACCTGTTGCAT (site CTCCATTCTAT),0.0304
19,CTCAATTCTTGGGTTCTAACCTGTTGCAT (site CTCGATTCTAT),0.27
20,CTCAATTCTTGGGTTCTAACCTGTTGCAT (site CTCTATTCTAT),0.148
